# Test results as given in US20140329863A1 (priority 2011, published 2014).
# Where two headings read alike, the source gives them in different places.
# Key:
# [1] = Tolerability / toxicity on repeated dosing in mice
# Binding in human plasma = conditions: 1 μM; mean ± SD, n = 3 (warfarin n = 2)
# [2] = Toleration studies in mice
# [3] = Single-dose pharmacokinetics in FVB mice (oral gavage, IV); conditions: female, FVB, mouse, po, 10 mg/kg
# [4] = Hepatic microsomal stability, mouse; conditions: for half-life at 1 μM: CD-1, mouse, pH 7.4
# [5] = tested on: PrP^Sc in nondividing ScN2a-c13 cells; format: cell-based, mouse
# [6] = Hepatic microsomal stability, human; conditions: for half-life at 1 μM: human, pH 7.4
# prion-infected mice = conditions: literature reports; cited from earlier work
# Binding in mouse plasma = conditions: 1 μM; mean ± SD, n = 3 (warfarin n = 2)
# [7] = Hepatic microsomal stability, rat
# [8] = tested on: PrP^Sc in dividing ScN2a-cl3 cells; format: cell-based, mouse
# [9] = Fraction unbound in cell-culture media; format: in vitro ADME; conditions: 1 μM; mean ± SD, n = 3
# [10] = Multidose (three-day) pharmacokinetics in liquid diet in FVB mice; conditions: FVB, mouse, in vivo, 100 mg/kg/day, Brain concentrations, 3 days, FVB mice
# Media solubility = format: physicochemical; conditions: cell media
# Experimental: To evaluate media solubility, two protocols were followed. In the first, solutions were prepared as described above. After overnight equilibration, samples were centrifuged for 30 min, without filtration, and supernatant analyzed by HPLC/UV/VIS with reference to three standards (5, 100, 250 μM). In the second protocol, turbidimetric analysis, dilutions of the compound of interest were prepared in media with target concentrations of 5, 10, 20, 50, 100, 200 and 300 μM. Media without solute was included for background. These solutions were evaluated using a light scattering technique and a Nepheloskan instrument.
# PrP^C in T98G cells [11] = format: cell-based, human
# [12] = tested on: PrP^Sc in dividing ScN2a-c13 cells
# PrP^C in IMR32 cells [13] = format: cell-based, human
# IMR32 cells = format: cell-based, human
# PrP^C in IMR32 cells [14] = format: cell-based, human; remark: listed apart in the source
# PrP^C in T98G cells [15] = format: cell-based, human; remark: listed apart in the source
# T98G cells = assay: cells; format: cell-based, human; conditions: calcein, T98G cells
# [16] = tested on: PrP^Sc in dividing ScN2a-cl3 cells; conditions: previously demonstrated; cited from earlier work
# [17] = tested on: PrP^Sc in nondividing ScN2a-cl3 cells; conditions: previously demonstrated; cited from earlier work
smiles,measurement,setting,value
"C(=N\Nc1ccc(-c2cnco2)cc1)/c1ccncc1 [Compound B, (E)-5-(4-(2-(pyridin-4-ylmethylene)hydrazinyl)phenyl)oxazole, reference compound]",dose with lethal toxicity,[1]; administered chronically in vivo for eight days,> 110 mg/kg/day
same,dose with lethal toxicity,[1]; administered in vivo,≥ 150 mg/kg/day
same,tolerated dose,[1]; at least eight days,up to 100 mg/kg/day
same,brain concentration as multiple of EC50,[1]; doses up to 100 mg/kg/day for at least eight days,> 10 ×EC50
same,"Unbound (%), Human Plasma",Binding in human plasma,2.10 ± 1.11%
same,Toleration,"[2]; 25, 50, 100, and 150 mg/kg for 3 days in liquid rodent diet, FVB mice","All doses were tolerated, with no animals showing lethal toxicity"
same,animals dying,[2]; ≧150 mg/kg/day for 8 days,2/4
same,Kp,[3]; brain and plasma,0.5
same,bioavailability,[3]; plasma,25 to 27%
same,half-life at 1 μM,[4]; mouse liver microsomes,30 min
same,Hepatic Extraction Ratio Mouse,[4]; mouse,0.8
same,"% remaining after a 60-min incubation, Mouse",[4]; mouse liver microsomes,29%
same,activity on PrP^Sc in nondividing cells (in words),[5],inactive
same,"% remaining after a 60-min incubation, Human",[6]; human liver microsomes,68%
same,half-life at 1 μM,[6]; human liver microsomes,> 60 min
same,effect in prion-infected mice,prion-infected mice,extended the incubation times
same,"Unbound (%), Mouse Plasma",Binding in mouse plasma,9.06 ± 2.31%
same,half-life at 1 μM,"[7]; Sprague-Dawley, rat, […], pH 7.4",> 60 min
same,"% remaining after a 60-min incubation, Rat",[7]; […],77%
same,EC50,"[8]; Table 29, 2-AMT analogs tested for potency, usually n = 3 or more",246 nM
same,EC50,"[8]; read-out: EC50, PrP^Sc ELISA in dividing ScN2a-c13 cells",400 nM
same,"Unbound (%), Cell-culture Media",[9],36.5 ± 3.30%
same,concentration at 3 days,[10],~10 µM
"COc1ccc(Nc2nc(-c3ccc(OC)c(OC)c3)cs2)nc1 [IND44, [4-(3,4-Dimethoxy-phenyl)-thiazol-2-yl]-(5-methoxy-pyridin-2-yl)-amine]",solubility in FaSSIF (in words),fasted-state simulated intestinal fluid,lower solubility
same,solubility at pH 2.0 (in words),pH 2 (HCl) buffer,lower solubility
same,solubility at pH 7.4 (in words),pH 7.4 phosphate buffer,lower solubility
same,solubility in media (in words),Media solubility,lower solubility
same,half-life at 1 μM,[4]; liver microsomes,29 min
same,half-life at 1 μM,[4]; mouse liver microsomes,29 min
same,"% remaining after a 60-min incubation, Mouse",[4]; mouse liver microsomes,24%
same,"% remaining after a 60-min incubation, Human",[6]; human liver microsomes,48%
same,half-life at 1 μM,[6]; human liver microsomes,58 min
same,half-life at 1 μM,[6]; liver microsomes,58 min
same,"t1/2 in min, Rat",[7]; […],45 min
same,"% remaining after a 60-min incubation, Rat",[7]; […],39%
same,t1/2 Rat,[7]; rat microsomes,45 min
same,solubility,physchem; FaSSIF,< 1 µM
same,solubility,"physchem; cell culture media, plasma or biological fluid",3 µM
same,solubility,"physchem; pH 2 (HCl) buffer, pH 2, simulated gastric fluid",1 µM
same,solubility,"physchem; pH 7.4 (phosphate) buffer, pH 7.4, aqueous buffer",< 1 µM
"O=C(O)c1cccc2c1NC(C(=O)O)C1CC=CC21 (stereo not shown) [IND-0001270, 3a, 4,5,9b-tetrahydro-3H cyclopenta[c]quinoline-4,6-dicarboxylic acid]",activity on PrP^C (in words),PrP^C in T98G cells [11],active
same,activity on PrP^Sc in nondividing cells (in words),[5],active
same,antiprion activity (in words),[12]; dividing ScN2a-c13 cells,active
same,activity on PrP^C (in words),PrP^C in IMR32 cells [13]; IMR32 cells,active
O=C(Cc1ccc(Br)cc1)NCc1ccccc1 [IND-0061769],% Inhibition: Calcein (IMR32),IMR32 cells,21%
same,% Inhibition: SPC (IMR32),PrP^C in IMR32 cells [14],MW: 304.2 % Inhibition: SPC (IMR32): 46 Calcein: 21 SPC (T98G): 63 Calcein: 38
same,EC50,"PrP^C in T98G cells [11]; read-out: EC50, PrP^C",1840 nM
same,% Inhibition: SPC (T98G),PrP^C in T98G cells [15],MW: 304.2 % Inhibition: SPC (IMR32): 46 Calcein: 21 SPC (T98G): 63 Calcein: 38
same,% Inhibition: Calcein (T98G),T98G cells,38%
same,EC50,"PrP^C in IMR32 cells [13]; read-out: EC50, PrP^C, IMR32 cells",2050 nM
CCN(CC)CCCC(C)Nc1c2ccc(Cl)cc2nc2ccc(OC)cc12 (stereo not shown) [quinacrine],Clearance of PrP^Sc in dividing cells,[16],rapidly clears dividing cells of PrP^Sc
same,Clearance of PrP^Sc in nondividing prion-infected cells,[17],relatively ineffective
same,effect in prion-infected mice,prion-infected mice,ineffective
same,"PrP^Sc levels, HTS of FDA-approved drugs","[12]; HTS of 1,700 FDA-approved drugs",lowered
same,"PrP^C levels, HTS of FDA-approved drugs",PrP^C in IMR32 cells [13],lowered
